Measurements reported in patent publication US9283222B2 (priority 2006, dated 2016).

What follows are compounds tested against Recombinant Human Poly(ADP-Ribose) Polymerase (PARP), PARP-1 (Homo sapiens (Human), UniProt P09874). Details: read-out: PARP-1 (Ki); Table 1; text calls the values EC50s.
Chain of Recombinant Human Poly(ADP-Ribose) Polymerase (PARP), PARP-1 (P09874 whole entry): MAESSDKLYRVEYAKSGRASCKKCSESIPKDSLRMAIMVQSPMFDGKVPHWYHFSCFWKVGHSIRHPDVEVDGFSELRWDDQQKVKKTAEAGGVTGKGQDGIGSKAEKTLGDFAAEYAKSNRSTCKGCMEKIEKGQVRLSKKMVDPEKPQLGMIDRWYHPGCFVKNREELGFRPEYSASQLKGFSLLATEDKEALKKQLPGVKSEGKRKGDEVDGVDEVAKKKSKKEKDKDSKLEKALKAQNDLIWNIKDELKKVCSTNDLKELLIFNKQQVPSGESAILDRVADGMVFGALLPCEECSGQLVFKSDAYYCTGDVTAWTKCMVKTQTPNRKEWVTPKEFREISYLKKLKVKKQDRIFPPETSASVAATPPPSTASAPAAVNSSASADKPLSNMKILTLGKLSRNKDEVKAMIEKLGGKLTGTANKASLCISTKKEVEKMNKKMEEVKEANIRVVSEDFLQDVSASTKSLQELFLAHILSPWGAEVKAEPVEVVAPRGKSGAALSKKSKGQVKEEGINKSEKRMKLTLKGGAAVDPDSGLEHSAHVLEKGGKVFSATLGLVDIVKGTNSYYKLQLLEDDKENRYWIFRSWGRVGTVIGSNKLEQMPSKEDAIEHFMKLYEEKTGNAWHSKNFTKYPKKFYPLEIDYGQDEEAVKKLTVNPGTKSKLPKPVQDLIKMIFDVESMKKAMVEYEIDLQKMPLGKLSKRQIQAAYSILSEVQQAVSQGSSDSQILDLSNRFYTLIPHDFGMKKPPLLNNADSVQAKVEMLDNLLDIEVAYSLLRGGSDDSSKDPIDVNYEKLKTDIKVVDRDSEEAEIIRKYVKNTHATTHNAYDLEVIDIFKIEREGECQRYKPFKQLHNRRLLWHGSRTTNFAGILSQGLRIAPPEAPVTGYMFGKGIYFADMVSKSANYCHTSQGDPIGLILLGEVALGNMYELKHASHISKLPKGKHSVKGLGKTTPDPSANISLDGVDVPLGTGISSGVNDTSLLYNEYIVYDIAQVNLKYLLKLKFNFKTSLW
With `CCN(CCN)C(=O)c1cc(Cc2n[nH]c(=O)c3c2CCCC3)ccc1F` [Example 719, N-(2-aminoethyl)-N-ethyl-2-fluoro-5-[(4-oxo-3,4,5,6,7,8-hexahydrophthalazin-1-yl)methyl]benzamide] the Ki was 7 nM.
With `O=C(c1ccncc1)N1CCN(C(=O)c2cc(Cc3n[nH]c(=O)c4c3CCCC4)ccc2F)CC1` [Example 720, 4-{4-fluoro-3-[(4-isonicotinoylpiperazin-1-yl)carbonyl]benzyl}-5,6,7,8-tetrahydrophthalazin-1(2H)-one] the Ki was 1.4 nM.
Compound `CN(C(=O)c1cc(Cc2n[nH]c(=O)c3c2NCCC3)ccc1F)C1CCN(C(=O)c2ccccn2)CC1` [Example 721, 2-fluoro-N-methyl-5-[(5-oxo-1,2,3,4,5,6-hexahydropyrido[2,3-d]pyridazin-8-yl)methyl]-N-[1-(pyridin-2-ylcarbonyl)piperidin-4-yl]benzamide] has a Ki of 3 nM.
With `O=C(c1cccnc1)N1CCN(C(=O)c2cc(Cc3n[nH]c(=O)c4c3CCCC4)ccc2F)CC1` [Example 722, 4-(4-fluoro-3-{[4-(pyridin-3-ylcarbonyl)piperazin-1-yl]carbonyl}benzyl)-5,6,7,8-tetrahydrophthalazin-1(2H)-one] the Ki was 1.2 nM.
`O=C(c1cnc(O)c(Cl)c1)N1CCN(C(=O)c2cc(Cc3n[nH]c(=O)c4c3CCCC4)ccc2F)CC1` [Example 723, 4-[3-({4-[(5-chloro-6-hydroxypyridin-3-yl)carbonyl]piperazin-1-yl}carbonyl)-4-fluorobenzyl]-5,6,7,8-tetrahydrophthalazin-1(2H)-one] gave a Ki of 1.3 nM.
In the case of `O=C(NC1CCN(C(=O)c2cccnc2)CC1)c1cc(Cc2n[nH]c(=O)c3c2NCCC3)ccc1F` [Example 724, 2-fluoro-5-[(5-oxo-1,2,3,4,5,6-hexahydropyrido[2,3-d]pyridazin-8-yl)methyl]-N-[1-(pyridin-3-ylcarbonyl)piperidin-4-yl]benzamide], the Ki is reported as 7 nM.
Compound `CC(C)n1c(C(F)(F)F)nc2cc(C(=O)N3CCN(C(=O)c4cc(Cc5n[nH]c(=O)c6c5CCCC6)ccc4F)CC3)ccc21` [Example 725, 4-{4-fluoro-3-[(4-{[1-isopropyl-2-(trifluoromethyl)-1H-benzimidazol-5-yl]carbonyl}piperazin-1-yl)carbonyl]benzyl}-5,6,7,8-tetrahydrophthalazin-1(2H)-one] has a Ki of 5 nM.
`O=C(NC1CCN(C(=O)c2ccco2)CC1)c1cc(Cc2n[nH]c(=O)c3c2NCCC3)ccc1F` [Example 726, 2-fluoro-N-[1-(2-furoyl)piperidin-4-yl]-5-[(5-oxo-1,2,3,4,5,6-hexahydropyrido[2,3-d]pyridazin-8-yl)methyl]benzamide] was tested, and the Ki was 4 nM.
In the case of `O=C(c1cc(Cc2n[nH]c(=O)c3c2CCCC3)ccc1F)N1CCN(C(=O)[C@@H]2CSCN2)CC1` [Example 727, 4-[4-fluoro-3-({4-[(4R)-1,3-thiazolidin-4-ylcarbonyl]piperazin-1-yl}carbonyl)benzyl]-5,6,7,8-tetrahydrophthalazin-1(2H)-one], the Ki is reported as 1.4 nM.
Compound `CC(C)n1nnc2cc(C(=O)N3CCN(C(=O)c4cc(Cc5n[nH]c(=O)c6c5CCCC6)ccc4F)CC3)ccc21` [Example 728, 4-[4-fluoro-3-({4-[(1-isopropyl-1H-1,2,3-benzotriazol-5-yl)carbonyl]piperazin-1-yl}carbonyl)benzyl]-5,6,7,8-tetrahydrophthalazin-1(2H)-one] has a Ki of 1.8 nM.
`O=C(NC1CCN(C(=O)[C@@H]2CSCN2)CC1)c1cc(Cc2n[nH]c(=O)c3c2NCCC3)ccc1F` [Example 729, 2-fluoro-5-[(5-oxo-1,2,3,4,5,6-hexahydropyrido[2,3-d]pyridazin-8-yl)methyl]-N-{1-[(4R)-1,3-thiazolidin-4-ylcarbonyl]piperidin-4-yl}benzamide] gave a Ki of 48 nM.
`O=C(c1ccccn1)N1CCN(C(=O)c2cc(Cc3n[nH]c(=O)c4c3CCCC4)ccc2F)CC1` [Example 730, 4-(4-fluoro-3-{[4-(pyridin-2-ylcarbonyl)piperazin-1-yl]carbonyl}benzyl)-5,6,7,8-tetrahydrophthalazin-1(2H)-one] gave a Ki of 1.3 nM.
In the case of `O=C(NC1CCN(C(=O)c2cscn2)CC1)c1cc(Cc2n[nH]c(=O)c3c2NCCC3)ccc1F` [Example 731, 2-fluoro-5-[(5-oxo-1,2,3,4,5,6-hexahydropyrido[2,3-d]pyridazin-8-yl)methyl]-N-[1-(1,3-thiazol-4-ylcarbonyl)piperidin-4-yl]benzamide], the Ki is reported as 11 nM.
For `O=C(c1cncnc1)N1CCN(C(=O)c2cc(Cc3n[nH]c(=O)c4c3CCCC4)ccc2F)CC1` [Example 733, 4-(4-fluoro-3-{[4-(pyrimidin-5-ylcarbonyl)piperazin-1-yl]carbonyl}benzyl)-5,6,7,8-tetrahydrophthalazin-1(2H)-one], the Ki was 1.7 nM.
`O=C(NC1CCN(C(=O)c2cn[nH]c2)CC1)c1cc(Cc2n[nH]c(=O)c3c2NCCC3)ccc1F` [Example 734, 2-fluoro-5-[(5-oxo-1,2,3,4,5,6-hexahydropyrido[2,3-d]pyridazin-8-yl)methyl]-N-[1-(1H-pyrazol-4-ylcarbonyl)piperidin-4-yl]benzamide] was tested, and the Ki was 9 nM.
`O=C(c1ccc(O)nc1)N1CCN(C(=O)c2cc(Cc3n[nH]c(=O)c4c3CCCC4)ccc2F)CC1` [Example 735, 4-[4-fluoro-3-({4-[(6-hydroxypyridin-3-yl)carbonyl]piperazin-1-yl}carbonyl)benzyl]-5,6,7,8-tetrahydrophthalazin-1(2H)-one] was tested, and the Ki was 1.5 nM.
Work on `O=C(NC1CCN(C(=O)c2ccccn2)CC1)c1cc(Cc2n[nH]c(=O)c3c2NCCC3)ccc1F` [Example 736, 2-fluoro-5-[(5-oxo-1,2,3,4,5,6-hexahydropyrido[2,3-d]pyridazin-8-yl)methyl]-N-[1-(pyridin-2-ylcarbonyl)piperidin-4-yl]benzamide] yielded a Ki of 4 nM.
`O=C(NC1CCN(C(=O)c2ccncc2)CC1)c1cc(Cc2n[nH]c(=O)c3c2NCCC3)ccc1F` [Example 738, 2-fluoro-N-(1-isonicotinoylpiperidin-4-yl)-5-[(5-oxo-1,2,3,4,5,6-hexahydropyrido[2,3-d]pyridazin-8-yl)methyl]benzamide] gave a Ki of 14 nM.
Work on `O=C(c1ccc2ccccc2n1)N1CCN(C(=O)c2cc(Cc3n[nH]c(=O)c4c3CCCC4)ccc2F)CC1` [Example 739, 4-(4-fluoro-3-{[4-(quinolin-2-ylcarbonyl)piperazin-1-yl]carbonyl}benzyl)-5,6,7,8-tetrahydrophthalazin-1(2H)-one] yielded a Ki of 1.3 nM.
`N[C@H]1CCCC[C@@H]1NC(=O)c1cc(Cc2n[nH]c(=O)c3c2NCCC3)ccc1F` [Example 740, N-[(1S,2S)-2-aminocyclohexyl]-2-fluoro-5-[(5-oxo-1,2,3,4,5,6-hexahydropyrido[2,3-d]pyridazin-8-yl)methyl]benzamide] was tested, and the Ki was 52 nM.
`CCN(CCNC(=O)c1ccccc1)C(=O)c1cc(Cc2n[nH]c(=O)c3c2CCCC3)ccc1F` [Example 742, N-[2-(benzoylamino)ethyl]-N-ethyl-2-fluoro-5-[(4-oxo-3,4,5,6,7,8-hexahydrophthalazin-1-yl)methyl]benzamide] gave a Ki of 1.8 nM.
With `CCN(CCNC(=O)N1CCCC1)C(=O)c1cc(Cc2n[nH]c(=O)c3c2CCCC3)ccc1F` [Example 743, N-[2-(ethyl{2-fluoro-5-[(4-oxo-3,4,5,6,7,8-hexahydrophthalazin-1-yl)methyl]benzoyl}amino)ethyl]pyrrolidine-1-carboxamide] the Ki was 2.7 nM.
`O=C(NC1CCN(c2ccccn2)CC1)c1cc(Cc2n[nH]c(=O)c3c2NCCC3)ccc1F` [Example 745, 2-fluoro-5-[(5-oxo-1,2,3,4,5,6-hexahydropyrido[2,3-d]pyridazin-8-yl)methyl]-N-(1-pyridin-2-ylpiperidin-4-yl)benzamide] showed a Ki of 8 nM.
For `O=C(NC1CCN(C(=O)c2cc(Cc3n[nH]c(=O)c4c3NCCC4)ccc2F)CC1)c1cccnc1` [Example 747, N-(1-{2-fluoro-5-[(5-oxo-1,2,3,4,5,6-hexahydropyrido[2,3-d]pyridazin-8-yl)methyl]benzoyl}piperidin-4-yl)nicotinamide], the Ki was 1.5 nM.
Compound `O=C(NC1CCN(C(=O)c2cc(Cc3n[nH]c(=O)c4c3NCCC4)ccc2F)CC1)c1ccncc1` [Example 748, N-(1-{2-fluoro-5-[(5-oxo-1,2,3,4,5,6-hexahydropyrido[2,3-d]pyridazin-8-yl)methyl]benzoyl}piperidin-4-yl)isonicotinamide] has a Ki of 1 nM.
For `O=C(NC1CCN(C(=O)c2cc(Cc3n[nH]c(=O)c4c3NCCC4)ccc2F)CC1)c1ccc2cn[nH]c2c1` [Example 749, N-(1-{2-fluoro-5-[(5-oxo-1,2,3,4,5,6-hexahydropyrido[2,3-d]pyridazin-8-yl)methyl]benzoyl}piperidin-4-yl)-1H-indazole-6-carboxamide], the Ki was 1.4 nM.
For `O=C(NC1CCN(C(=O)c2cc(Cc3n[nH]c(=O)c4c3NCCC4)ccc2F)CC1)c1ccco1` [Example 750, N-(1-{2-fluoro-5-[(5-oxo-1,2,3,4,5,6-hexahydropyrido[2,3-d]pyridazin-8-yl)methyl]benzoyl}piperidin-4-yl)-2-furamide], the Ki was 1.1 nM.
For `O=C(NC1CCN(C(=O)c2cc(Cc3n[nH]c(=O)c4c3NCCC4)ccc2F)CC1)c1cscn1` [Example 751, N-(1-{2-fluoro-5-[(5-oxo-1,2,3,4,5,6-hexahydropyrido[2,3-d]pyridazin-8-yl)methyl]benzoyl}piperidin-4-yl)-1,3-thiazole-4-carboxamide], the Ki was 1.5 nM.
In the case of `CN(C(=O)C1CCC1)c1cc(Cc2n[nH]c(=O)c3c2CCCC3)ccc1F` [Example 753, N-{2-fluoro-5-[(4-oxo-3,4,5,6,7,8-hexahydrophthalazin-1-yl)methyl]phenyl}-N-methylcyclobutanecarboxamide], the Ki is reported as 92 nM.
Work on `Cc1nc2cc(C(=O)N3CCN(C(=O)c4cc(Cc5n[nH]c(=O)c6c5CCCC6)ccc4F)CC3)ccc2[nH]1` [Example 754, 4-[4-fluoro-3-({4-[(2-methyl-1H-benzimidazol-5-yl)carbonyl]piperazin-1-yl}carbonyl)benzyl]-5,6,7,8-tetrahydrophthalazin-1(2H)-one] yielded a Ki of 0.6 nM.
For `O=C(c1cc(Cc2n[nH]c(=O)c3c2CCCC3)ccc1F)N1CCN(C(=O)c2cccnc2Cl)CC1` [Example 755, 4-[3-({4-[(2-chloropyridin-3-yl)carbonyl]piperazin-1-yl}carbonyl)-4-fluorobenzyl]-5,6,7,8-tetrahydrophthalazin-1(2H)-one], the Ki was 1.5 nM.
